Laboratory results from patent publication US20030138429A1, “Compositions and methods for inhibiting metastasis” (priority 2001, published 2003).

Experiments:
[1] = system: 1-LN cells; assay: MMP-9 activity in serum-free culture medium of 1-LN cells (quantitative gelatin zymography); format: cell-based, human
Method: Gelatin Zymography—Protein samples were electrophoresed on gelatin-containing 0.75 mm thick 10% polyacrylamide gels in the presence of SDS under nonreducing conditions. After completion of the electrophoretic run, the gels were incubated with two changes of 2.5% Triton X-100 for 1 h, followed by incubation for 18 h at 37° C. in 0.1 M glycine-NaOH, pH 8.3, containing 1 mM CaCl2, and […], before staining with Coomassie Brilliant Blue R-250 to visualize the lysis bands.
MMP-9 Activity in Solution—MMP-9 activity was measured in tissue culture supernatants by quantitative zymography using as a standard MMP-9 purified by affinity chromatography on gelatin-Sepharose from 1-LN cell conditioned medium (10 liters). Conditioned medium (50 μl), from 1-LN cell monolayers in 48 well culture plates (1.7×10^6 cells/well) incubated with Pg 2 glycoforms and/or inhibitors of Pg binding or activation, were electrophoresed on gelatin-containing gels and the degree of lysis was quantified using a Gelman ACD-15 Automatic Computing Densitometer (Gelman Instrument Company, Ann Arbor, Mich.). Values were determined by integrating the density of the selected bands and expressed in units×mm^2. Each gel was scanned three times and the average value of the integrated density of the bands was used to determine levels of MMP-9 from calibration curves constructed with purified active MMP-9 electrophoresed under the same conditions. The statistical analysis of the data was performed on an IBM 433 DX/S computer using the program SYSTAT® for Windows 95. The statistical significance of differences between means was evaluated by Student's t-test. MMP-9 was positively identified in conditioned medium by electrophoretic separation in 10% SDS-polyacrylamide gels (SDS-PAGE), electroblot of the electrophoresed proteins to nitrocellulose membranes and reaction with an anti-MMP-9 mAb (1 μg/ml) followed by reaction with a secondary alkaline phosphatase conjugated anti-mouse IgG. Detection was performed by reaction with the alkaline phosphatase substrate 5-bromo-4-chloro-3-indolyl phosphate in the presence of nitroblue tetrazolium (1 mM each) in 10 mM Tris-HCl, pH 8.5.
Effect of Pg on the Expression of MMP-9 by 1-LN Cells—Cells were seeded into 48-well culture plates and grown in RPMI 1640 containing 10% fetal bovine serum. Confluent monolayers were then incubated for 24 h with quiescent culture medium containing RPMI 1640 and 0.5% fetal bovine serum. Each individual Pg 2 glycoform (0.1 μM) was added in triplicate to cell monolayers in 300 μl of serum-free RPMI 1640 and incubated for 24 h at 37° C. Culture medium was collected to measure secretion of MMP-9 as described under Experimental Procedures. Prior to analyses of the MMP-9 secreted into the medium by 1-LN cells in the presence of individual Pg 2 glycoforms, we purified MMP-9 from conditioned medium (5 liters) by the technique of Masure et al.. […] A similar analysis of the Mr˜95,000 protein yielded the sequence APRQRQ, corresponding to the amino-terminal sequence of proMMP-9. […] We then proceeded to analyze the MMP-9 secreted into the medium by 1-LN cells incubated with each individual Pg 2 glycoform in serum-free culture medium, using the purified MMP-9 as a standard for quantification by gelatin zymography. These analyses (FIG. 7A) show a major band of active protein with a Mr˜85,000. […] Samples of these conditioned media were also subjected to SDS-PAGE under reducing conditions, electroblotted to nitrocellulose membranes and then reacted with an anti-MMP-9 mAb (FIG. 7B). […] A 4-fold decrease in the production of MMP-9 by cells co-incubated with anti-DPP IV mAb 236.3 and Pg 2ε (p<0.001) (Table II) is clearly observed in the conditioned medium (Lane 6 on FIGS. 8A and 8B, respectively).

[2] = system: 1-LN human prostate tumor cells; assay: Binding of 125I-labeled Pg 2 glycoforms to 1-LN cells; details: 125I-labeled glycoform 0.1 μM, increasing concentrations of inhibitor
Method: Ligand Binding Analysis—Cells were grown in tissue culture plates until the monolayers were confluent. Prior to use in binding assays, the cells were washed in HBSS. All binding assays were performed at 4° C. in RPMI 1640 containing 2% bovine serum ablumin (BSA). Increasing concentrations of ^125I-labeled Pg 2 glycoforms were incubated with cells for 60 min in 48-well or 96-well culture plates, respectively. Free ligand was separated from bound by aspirating the incubation mixture by and washing the cell monolayers rapidly three times with RPMI 1640 containing 2% BSA. The cells were then lyzed with 0.1 M NaOH, and bound radioactivity was determined in a Pharmacia LKB Biotechnology 1272-gamma counter. Molecules of ligand bound were calculated after substraction of non-specific binding measured in the presence of nonlabeled 100 μM Pg 2. Estimates for dissociation constant (Kd) values and maximal binding of Pg 2 glycoforms (Bmax) were determined by fitting data directly to the Langmuir isotherm using the statistical program SYStat® for Windows.
Binding of Single Pg 2 Glycoforms to 1-LN Human Prostate Tumor Cells—Binding of ^125I-labeled single Pg 2 glycoforms to 1-LN cells was determined as described under Experimental Procedures. Native Pg 2 has six glycoforms which differ in their sialic acid content.
In order to assess the binding mechanism of the individual Pg 2 glycoforms to 1-LN cells, we studied their activation by cells incubated with each glycoform in the presence of 6-aminohexanoic acid (6-AHA) and L-lactose. The antifibrinolytic amino acid 6-AHA prevents interaction of Pg L-lysine binding sites with several cell membrane-associated components. L-lactose is a sugar which intereferes with binding of Neu 5-AC (α2-3) or (α2-6) residues to sialic acid binding proteins and inhibits binding of Native Pg 2 to DPP IV on the surface of rheumatoid synovial fibroblasts.

[3] = system: 1-LN cells; assay: In vitro Matrigel invasion assay (modified Boyden chamber); format: cell-based, human; details: cells incubated with Pg (Pg 2ε) plus inhibitor, in words
Method: In Vitro Invasion Assay—The invasive activity in vitro was assessed by determining the ability of 1-LN cells to invade Matrigel® [47]. Polycarbonate filters (8-μm pore size; Becton Dickinson, Franklin Lakes, N.J.) were coated with Matrigel (12 μg/filter) and placed in a modified Boyden chamber. Cells (1×10^5) were added to the upper chamber in serum-free RPMI 1640 medium, or medium containing purified Pg 2 glycoforms in the absence and presence of anti-DPP IV, anti-u-PA or anti-MMP-9 IgGs, and incubated for 48 h in a humidified atmosphere. Following incubation, non-invading cells were removed from the upper chamber with a cotton swab, and filters were excised and stained with Cyto-Quik™ (Fisher Scientific, Fair Lawn, N.J.). Cells on the lower surface of the filter were enumerated using an ocular micrometer and counting a minimum of five high-powered fields. Each experiment was performed twice with triplicate samples.
Effect of Pg on 1-LN Cellular Invasion—Pg enhances the ability of prostate cancer PC-3 and DU-145 cell lines to penetrate the synthetic basement membrane Matrigel® [54]. To determine whether Pg regulates invasion via secretion of MMP-9, 1-LN cells were incubated with different inhibiting antibodies in the presence of purified Pg 2 glycoforms.

Row | Compound | Active MMP-9 ([1]; SFM + additive alone, no Pg 2 glycoform, 24 h) | Changes in the production of MMP-9 ([1]; co-incubated with 6-AHA (100 mM) and individual Pg 2 glycoforms, versus controls) | Inhibition of binding of single Pg 2 glycoforms to 1-LN cells [2] | Effect on Pg-induced Matrigel invasion by 1-LN cells [3]
1 | NCCCCCC(=O)O [Glycoform 6-AHA, 6-aminohexanoic acid, reference compound] | 0.61 ± 0.14 ng/mL | did not show any major changes | inhibited the binding of Pg 2α and Pg 2β | 
2 | FN peptide L1768 TSRPA: polypeptide comprising the fibronectin (FN) primary sequence L1768 TSRPA that mediates FN binding to CD26/DPP IV (FPAPDG; UniProt P02751 1768-1773, looked up, fragment) |  |  |  | inhibited Pg-induced Matrigel invasion by 1-LN cells in a dose-dependent manner
3 | angiostatin |  |  |  | total inhibition
